Read-outs that look alike come from different tables or passages of the source.
How the values were obtained:
Assay in all cases: Kinase inhibitor library screening, PrestoBlue cell viability, 1 or 10 μM, 72 h
[1] = test system: A375-XP cells (Vemurafenib-resistant)
[2] = test system: 501Mel-GP cells (Dabrafenib-resistant)
A375 cells (parental) = test system: A375 cells (parental)
IGR37 cells (parental) = test system: IGR37 cells (parental)
[3] = test system: IGR37-XP cells (Vemurafenib-resistant)
[4] = test system: 501Mel-XP cells (Vemurafenib-resistant)
[5] = test system: IGR37-GP cells (Dabrafenib-resistant)
501Mel cells (parental) = test system: 501Mel cells (parental)
Method in brief: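 Readout: PrestoBlue signal on a monochromator plate reader, given as percent viability relative to untreated controls. Parental and drug-resistant (Vemurafenib XP, Dabrafenib GP) sublines were tested; at least duplicates per line.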

[6] = test system: A375-GP cells (Dabrafenib-resistant)
[7] = IGR37 Parental, 10μΜ, 72 h, in %
[8] = 501Mel Parental, 1μΜ, 72 h, in %
[9] = 501Mel Parental, 10μΜ, 72 h, in %
[10] = IGR37 Parental, 1μΜ, 72 h, in %

## Nc1nc(N)c2nc(-c3cccc(O)c3)cnc2n1 [TG 100713]
[1]; A375 XP, 1μΜ, 72 h
  Cell viability in kinase inhibitor library screening, A375 XP, 1μΜ: 93.7
[1]; A375 XP, 10μΜ, 72 h
  Cell viability in kinase inhibitor library screening, A375 XP, 10μΜ: 40.5
[2]; 501Mel GP, 1μΜ, 72 h, in %
  Cell viability in kinase inhibitor library screening, 501Mel GP, 1μΜ: 98.4
[2]; 501Mel GP, 10μΜ, 72 h, in %
  Cell viability in kinase inhibitor library screening, 501Mel GP, 10μΜ: 36.6
A375 cells (parental); A375 Parental, 10μΜ, 72 h
  Cell viability in kinase inhibitor library screening, A375 Parental, 10μΜ: 43.8
A375 cells (parental); A375 Parental, 1μΜ, 72 h
  Cell viability in kinase inhibitor library screening, A375 Parental, 1μΜ: 94.5
IGR37 cells (parental); [7]
  Cell viability in kinase inhibitor library screening, IGR37 Parental, 10μΜ: 49.5
[3]; IGR37 XP, 10μΜ, 72 h
  Cell viability in kinase inhibitor library screening, IGR37 XP, 10μΜ: 21.2%
[3]; IGR37 XP, 1μΜ, 72 h, in %
  Cell viability in kinase inhibitor library screening, IGR37 XP, 1μΜ: 97.8
[4]; 501Mel XP, 1μΜ, 72 h, in %
  Cell viability in kinase inhibitor library screening, 501Mel XP, 1μΜ: 90.7
[4]; 501Mel XP, 10μΜ, 72 h, in %
  Cell viability in kinase inhibitor library screening, 501Mel XP, 10μΜ: 26.9
[5]; IGR37 GP, 10μΜ, 72 h
  Cell viability in kinase inhibitor library screening, IGR37 GP, 10μΜ: 58.8%
[5]; IGR37 GP, 1μΜ, 72 h, in %
  Cell viability in kinase inhibitor library screening, IGR37 GP, 1μΜ: 93.1
501Mel cells (parental); [8]
  Cell viability in kinase inhibitor library screening, 501Mel Parental, 1μΜ: 94.5
501Mel cells (parental); [9]
  Cell viability in kinase inhibitor library screening, 501Mel Parental, 10μΜ: 56.1
[6]; A375 GP, 1μΜ, 72 h
  Cell viability in kinase inhibitor library screening, A375 GP, 1μΜ: 94.1
[6]; A375 GP, 10μΜ, 72 h
  Cell viability in kinase inhibitor library screening, A375 GP, 10μΜ: 37.7

## Cc1nc(NC(=O)N2CCC[C@H]2C(N)=O)sc1-c1ccnc(C(C)(C)C(F)(F)F)c1 [BYL719]
[1]; A375 XP, 1μΜ, 72 h
  Cell viability in kinase inhibitor library screening, A375 XP, 1μΜ: 93.5
[1]; A375 XP, 10μΜ, 72 h
  Cell viability in kinase inhibitor library screening, A375 XP, 10μΜ: 62.9
[2]; 501Mel GP, 10μΜ, 72 h, in %
  Cell viability in kinase inhibitor library screening, 501Mel GP, 10μΜ: 62.2
A375 cells (parental); A375 Parental, 10μΜ, 72 h
  Cell viability in kinase inhibitor library screening, A375 Parental, 10μΜ: 60.2
A375 cells (parental); A375 Parental, 1μΜ, 72 h
  Cell viability in kinase inhibitor library screening, A375 Parental, 1μΜ: 93.2
IGR37 cells (parental); [10]
  Cell viability in kinase inhibitor library screening, IGR37 Parental, 1μΜ: 99.1
IGR37 cells (parental); [7]
  Cell viability in kinase inhibitor library screening, IGR37 Parental, 10μΜ: 77.8
[3]; IGR37 XP, 10μΜ, 72 h
  Cell viability in kinase inhibitor library screening, IGR37 XP, 10μΜ: 20.2%
[3]; IGR37 XP, 1μΜ, 72 h, in %
  Cell viability in kinase inhibitor library screening, IGR37 XP, 1μΜ: 80.6
[4]; 501Mel XP, 1μΜ, 72 h, in %
  Cell viability in kinase inhibitor library screening, 501Mel XP, 1μΜ: 90.3
[4]; 501Mel XP, 10μΜ, 72 h, in %
  Cell viability in kinase inhibitor library screening, 501Mel XP, 10μΜ: 56.3
[5]; IGR37 GP, 10μΜ, 72 h
  Cell viability in kinase inhibitor library screening, IGR37 GP, 10μΜ: 62.1%
[5]; IGR37 GP, 1μΜ, 72 h, in %
  Cell viability in kinase inhibitor library screening, IGR37 GP, 1μΜ: 90.5
501Mel cells (parental); [8]
  Cell viability in kinase inhibitor library screening, 501Mel Parental, 1μΜ: 99.0
501Mel cells (parental); [9]
  Cell viability in kinase inhibitor library screening, 501Mel Parental, 10μΜ: 90.7
[6]; A375 GP, 1μΜ, 72 h
  Cell viability in kinase inhibitor library screening, A375 GP, 1μΜ: 86.9
[6]; A375 GP, 10μΜ, 72 h
  Cell viability in kinase inhibitor library screening, A375 GP, 10μΜ: 52.5

## Clc1ccc(C2(c3ccc(-c4cn[nH]c4)cc3)CCNCC2)cc1 [AT7867]
[1]; A375 XP, 1μΜ, 72 h
  cell viability (kinase inhibitor library screening): 99.3%
[1]; A375 XP, 10μΜ, 72 h
  cell viability (kinase inhibitor library screening): 63.1%
[2]; 501Mel GP, 1μΜ, 72 h
  cell viability (kinase inhibitor library screening): 93.8%
[2]; 501Mel GP, 10μΜ, 72 h
  cell viability (kinase inhibitor library screening): 20.5%
A375 cells (parental); A375 Parental, 10μΜ, 72 h
  cell viability (kinase inhibitor library screening): 58.0%
A375 cells (parental); A375 Parental, 1μΜ, 72 h
  cell viability (kinase inhibitor library screening): 97.2%
IGR37 cells (parental); IGR37 Parental, 1μΜ, 72 h
  cell viability (kinase inhibitor library screening): 98.1%
IGR37 cells (parental); IGR37 Parental, 10μΜ, 72 h
  cell viability (kinase inhibitor library screening): 84.9%
[3]; IGR37 XP, 1μΜ, 72 h
  cell viability (kinase inhibitor library screening): 105.4%
[3]; IGR37 XP, 10μΜ, 72 h
  cell viability (kinase inhibitor library screening): 42.3%
[4]; 501Mel XP, 1μΜ, 72 h
  cell viability (kinase inhibitor library screening): 81.2%
[4]; 501Mel XP, 10μΜ, 72 h
  cell viability (kinase inhibitor library screening): 0.172%
[5]; IGR37 GP, 1μΜ, 72 h
  cell viability (kinase inhibitor library screening): 89.7%
[5]; IGR37 GP, 10μΜ, 72 h
  cell viability (kinase inhibitor library screening): 78.9%
501Mel cells (parental); 501Mel Parental, 1μΜ, 72 h
  cell viability (kinase inhibitor library screening): 93.0%
501Mel cells (parental); 501Mel Parental, 10μΜ, 72 h
  cell viability (kinase inhibitor library screening): 5.4%
[6]; A375 GP, 1μΜ, 72 h
  cell viability (kinase inhibitor library screening): 82.8%
[6]; A375 GP, 10μΜ, 72 h
  cell viability (kinase inhibitor library screening): 43.6%

## CN(c1ncccc1CNc1nc(Nc2ccc3c(c2)CC(=O)N3)ncc1C(F)(F)F)S(C)(=O)=O [PF-00562271]
[1]; A375 XP, 1μΜ, 72 h, in %
  cell viability, A375 XP, 1μΜ: 107.5
[1]; A375 XP, 10μΜ, 72 h, in %
  cell viability, A375 XP, 10μΜ: 3.4
[2]; 501Mel GP, 1μΜ, 72 h, in %
  cell viability, 501Mel GP, 1μΜ: 98.0
[2]; 501Mel GP, 10μΜ, 72 h, in %
  cell viability, 501Mel GP, 10μΜ: 0.9
A375 cells (parental); A375 Parental, 1μΜ, 72 h, in %
  cell viability, A375 Parental, 1μΜ: 104.9
A375 cells (parental); A375 Parental, 10μΜ, 72 h, in %
  cell viability, A375 Parental, 10μΜ: 4.0
IGR37 cells (parental); [10]
  cell viability, IGR37 Parental, 1μΜ: 103.3
IGR37 cells (parental); [7]
  cell viability, IGR37 Parental, 10μΜ: 3.6
[3]; IGR37 XP, 10μΜ, 72 h
  cell viability, IGR37 XP, 10μΜ: 1.9%
[3]; IGR37 XP, 1μΜ, 72 h, in %
  cell viability, IGR37 XP, 1μΜ: 82.7
[4]; 501Mel XP, 1μΜ, 72 h, in %
  cell viability, 501Mel XP, 1μΜ: 94.1
[4]; 501Mel XP, 10μΜ, 72 h, in %
  cell viability, 501Mel XP, 10μΜ: 0.458
[5]; IGR37 GP, 10μΜ, 72 h
  cell viability, IGR37 GP, 10μΜ: 2.9%
501Mel cells (parental); [9]
  cell viability, 501Mel Parental, 10μΜ: 1.5
[6]; A375 GP, 1μΜ, 72 h, in %
  cell viability, A375 GP, 1μΜ: 92.2
[6]; A375 GP, 10μΜ, 72 h, in %
  cell viability, A375 GP, 10μΜ: 4.9

## COc1cc(Nc2ncc(F)c(Nc3ccc4c(n3)NC(=O)C(C)(C)O4)n2)cc(OC)c1OC.O=S(=O)(O)c1ccccc1 [R406]
[1]; A375 XP, 1μΜ, in %
  cell viability (kinase inhibitor library screening): 99.5
[1]; A375 XP, 10μΜ, in %
  cell viability (kinase inhibitor library screening): 69.5
[2]; 501Mel GP, 1μΜ, in %
  cell viability (kinase inhibitor library screening): 86.1
[2]; 501Mel GP, 10μΜ, in %
  cell viability (kinase inhibitor library screening): 50.0
A375 cells (parental); A375 Parental, 1μΜ, in %
  cell viability (kinase inhibitor library screening): 104.7
A375 cells (parental); A375 Parental, 10μΜ, in %
  cell viability (kinase inhibitor library screening): 58.1
IGR37 cells (parental); IGR37 Parental, 1μΜ, in %
  cell viability (kinase inhibitor library screening): 103.3
IGR37 cells (parental); IGR37 Parental, 10μΜ, in %
  cell viability (kinase inhibitor library screening): 95.3
[3]; IGR37 XP, 1μΜ, in %
  cell viability (kinase inhibitor library screening): 89.4
[3]; IGR37 XP, 10μΜ, in %
  cell viability (kinase inhibitor library screening): 27.5
[4]; 501Mel XP, 1μΜ, in %
  cell viability (kinase inhibitor library screening): 102.9
[4]; 501Mel XP, 10μΜ, in %
  cell viability (kinase inhibitor library screening): 48.7
[5]; IGR37 GP, 1μΜ, in %
  cell viability (kinase inhibitor library screening): 90.2
[5]; IGR37 GP, 10μΜ, in %
  cell viability (kinase inhibitor library screening): 56.0
501Mel cells (parental); 501Mel Parental, 1μΜ, in %
  cell viability (kinase inhibitor library screening): 89.8
501Mel cells (parental); 501Mel Parental, 10μΜ, in %
  cell viability (kinase inhibitor library screening): 71.4
[6]; A375 GP, 10μΜ, in %
  cell viability (kinase inhibitor library screening): 54.6

## COc1ccc(S(=O)(=O)N(C(C)=O)c2ccccc2/C=C/c2cc[n+]([O-])cc2)cc1 [HMN-214]
[1]
  Cell viability in kinase inhibitor library screening, A375 XP, 1μΜ: 37.9
  Cell viability in kinase inhibitor library screening, A375 XP, 10μΜ: 18.1
[2]; in %
  Cell viability in kinase inhibitor library screening, 501Mel GP, 1μΜ: 21.4
  Cell viability in kinase inhibitor library screening, 501Mel GP, 10μΜ: 22.7
A375 cells (parental)
  Cell viability in kinase inhibitor library screening, A375 Parental, 1μΜ: 34.0
  Cell viability in kinase inhibitor library screening, A375 Parental, 10μΜ: 23.3
IGR37 cells (parental); in %
  Cell viability in kinase inhibitor library screening, IGR37 Parental, 1μΜ: 19.8
  Cell viability in kinase inhibitor library screening, IGR37 Parental, 10μΜ: 16.1
[3]
  Cell viability in kinase inhibitor library screening, IGR37 XP, 10μΜ: 28.3%
[3]; in %
  Cell viability in kinase inhibitor library screening, IGR37 XP, 1μΜ: 57.1
[4]; in %
  Cell viability in kinase inhibitor library screening, 501Mel XP, 1μΜ: 14.9
  Cell viability in kinase inhibitor library screening, 501Mel XP, 10μΜ: 12.4
[5]
  Cell viability in kinase inhibitor library screening, IGR37 GP, 10μΜ: 66.9%
[5]; in %
  Cell viability in kinase inhibitor library screening, IGR37 GP, 1μΜ: 69.1
501Mel cells (parental); in %
  Cell viability in kinase inhibitor library screening, 501Mel Parental, 1μΜ: 17.6
  Cell viability in kinase inhibitor library screening, 501Mel Parental, 10μΜ: 20.7
[6]
  Cell viability in kinase inhibitor library screening, A375 GP, 1μΜ: 42.6
  Cell viability in kinase inhibitor library screening, A375 GP, 10μΜ: 20.9

— paper PMC6364417, “Kinase inhibitor library screening identifies synergistic drug combinations effective in sensitive and resistant melanoma cells” (Journal of Experimental & Clinical Cancer Research : CR, 2019)
